In one test the target is αHL pore (Staphylococcus aureus, UniProt P09616). Type of test: biochemical, staphylococcal.
In another test the target is WT αHL (Staphylococcus aureus, UniProt P09616). Type of test: biochemical, staphylococcal. Particulars: pH 7.
Test [1] concerns the target wild-type (WT) staphylococcal α-hemolysin (αHL) heptamer (Staphylococcus aureus, UniProt P09616). Type of test: biochemical. The settings on record: pH 7.

From patent publication US8691586B2 (priority 2006, dated 2014) come the findings set out here.

αHL pore, sequence (P09616 27-319 limits assumed): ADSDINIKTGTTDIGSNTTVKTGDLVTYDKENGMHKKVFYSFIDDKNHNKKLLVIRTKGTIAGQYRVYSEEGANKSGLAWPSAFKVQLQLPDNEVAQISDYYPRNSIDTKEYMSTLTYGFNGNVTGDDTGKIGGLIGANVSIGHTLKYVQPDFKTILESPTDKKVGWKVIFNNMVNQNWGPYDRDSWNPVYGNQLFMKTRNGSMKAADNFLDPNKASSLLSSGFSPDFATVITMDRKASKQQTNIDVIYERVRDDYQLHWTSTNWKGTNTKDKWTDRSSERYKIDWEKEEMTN
wild-type (WT) staphylococcal α-hemolysin (αHL) heptamer, sequence (P09616 27-319 limits assumed): as above
WT αHL, sequence (P09616 27-319 limits assumed): as above

With γ-cyclodextrin [γCD], the “residence time (toff)” value at αHL pore stood at 421 ± 22 ms. The “ionic current blocked by transient binding to an αHL pore” value at WT αHL is given as “around 60%”. The “residence time (toff) for γCD bound to the αHL pore” value in test [1] was 495 ± 51 ms.
